Structures can show the parent of a compound that is named as a salt.
target: T1, Androgen Receptor (Homo sapiens, UniProt P10275, T878A); test: Androgen Receptor Degradation Assay (Nano-Glo HiBiT); assay type: cell-based; details: HiBiT-tagged AR in human LnCaP cells, 18 h
T1 construct: the AR gene was modified, using CRISPR/Cas9 editing, so the expressed AR protein included an 11 amino acid HiBiT tag; endogenous in cells; host or cells: clonal LnCaP-derived line, AR gene edited by CRISPR/Cas9
In short: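 LnCaP cells with CRISPR-knocked-in N-terminal HiBiT-tagged AR (10,000/well) treated 18 h at 37 °C with PROTACs over 11 threefold concentrations; lytic HiBiT luminescence normalised to DMSO (0%) and cell-free (100%) controls. Relative DC50 = 4-parameter fit inflection; absolute DC50 = 50% degradation interpolation; Dmax = maximum observed degradation.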

T1 sequence (P10275 whole entry T878A): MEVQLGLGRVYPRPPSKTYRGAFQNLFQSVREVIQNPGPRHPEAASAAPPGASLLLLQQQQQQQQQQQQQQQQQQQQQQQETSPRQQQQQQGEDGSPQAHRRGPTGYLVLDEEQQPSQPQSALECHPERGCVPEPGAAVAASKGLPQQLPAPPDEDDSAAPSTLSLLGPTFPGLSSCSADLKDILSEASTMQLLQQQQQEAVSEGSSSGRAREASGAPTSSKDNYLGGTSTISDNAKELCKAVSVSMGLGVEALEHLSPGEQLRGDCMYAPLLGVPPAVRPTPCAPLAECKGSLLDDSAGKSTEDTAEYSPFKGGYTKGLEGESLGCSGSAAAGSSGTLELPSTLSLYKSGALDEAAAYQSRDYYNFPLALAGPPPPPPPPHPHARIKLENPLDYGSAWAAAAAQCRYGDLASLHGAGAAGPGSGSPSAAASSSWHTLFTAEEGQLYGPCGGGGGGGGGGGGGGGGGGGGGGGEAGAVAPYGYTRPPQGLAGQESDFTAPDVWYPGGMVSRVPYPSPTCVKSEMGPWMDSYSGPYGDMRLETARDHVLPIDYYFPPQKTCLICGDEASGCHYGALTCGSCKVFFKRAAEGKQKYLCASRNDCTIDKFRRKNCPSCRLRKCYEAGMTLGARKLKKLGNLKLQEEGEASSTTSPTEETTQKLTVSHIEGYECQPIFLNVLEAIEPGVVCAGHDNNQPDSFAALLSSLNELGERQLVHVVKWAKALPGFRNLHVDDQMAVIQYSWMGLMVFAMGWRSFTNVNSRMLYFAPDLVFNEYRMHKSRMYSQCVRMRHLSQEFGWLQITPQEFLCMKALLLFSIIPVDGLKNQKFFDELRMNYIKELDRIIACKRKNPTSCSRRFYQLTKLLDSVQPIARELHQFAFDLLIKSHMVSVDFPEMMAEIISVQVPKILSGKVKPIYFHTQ
T1 sequence (Q96SW2 whole entry partner): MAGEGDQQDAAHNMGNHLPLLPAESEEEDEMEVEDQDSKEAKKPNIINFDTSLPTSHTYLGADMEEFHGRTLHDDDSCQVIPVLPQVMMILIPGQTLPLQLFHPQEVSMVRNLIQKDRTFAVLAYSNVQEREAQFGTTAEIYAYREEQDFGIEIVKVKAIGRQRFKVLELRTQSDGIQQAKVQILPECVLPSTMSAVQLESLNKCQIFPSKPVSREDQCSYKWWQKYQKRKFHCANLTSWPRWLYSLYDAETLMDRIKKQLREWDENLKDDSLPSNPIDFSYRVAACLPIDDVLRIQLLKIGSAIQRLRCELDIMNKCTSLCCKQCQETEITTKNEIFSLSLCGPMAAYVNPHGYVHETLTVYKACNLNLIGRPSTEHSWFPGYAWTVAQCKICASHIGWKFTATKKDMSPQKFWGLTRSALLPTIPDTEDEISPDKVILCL
T1 sequence (Q16531 whole entry partner): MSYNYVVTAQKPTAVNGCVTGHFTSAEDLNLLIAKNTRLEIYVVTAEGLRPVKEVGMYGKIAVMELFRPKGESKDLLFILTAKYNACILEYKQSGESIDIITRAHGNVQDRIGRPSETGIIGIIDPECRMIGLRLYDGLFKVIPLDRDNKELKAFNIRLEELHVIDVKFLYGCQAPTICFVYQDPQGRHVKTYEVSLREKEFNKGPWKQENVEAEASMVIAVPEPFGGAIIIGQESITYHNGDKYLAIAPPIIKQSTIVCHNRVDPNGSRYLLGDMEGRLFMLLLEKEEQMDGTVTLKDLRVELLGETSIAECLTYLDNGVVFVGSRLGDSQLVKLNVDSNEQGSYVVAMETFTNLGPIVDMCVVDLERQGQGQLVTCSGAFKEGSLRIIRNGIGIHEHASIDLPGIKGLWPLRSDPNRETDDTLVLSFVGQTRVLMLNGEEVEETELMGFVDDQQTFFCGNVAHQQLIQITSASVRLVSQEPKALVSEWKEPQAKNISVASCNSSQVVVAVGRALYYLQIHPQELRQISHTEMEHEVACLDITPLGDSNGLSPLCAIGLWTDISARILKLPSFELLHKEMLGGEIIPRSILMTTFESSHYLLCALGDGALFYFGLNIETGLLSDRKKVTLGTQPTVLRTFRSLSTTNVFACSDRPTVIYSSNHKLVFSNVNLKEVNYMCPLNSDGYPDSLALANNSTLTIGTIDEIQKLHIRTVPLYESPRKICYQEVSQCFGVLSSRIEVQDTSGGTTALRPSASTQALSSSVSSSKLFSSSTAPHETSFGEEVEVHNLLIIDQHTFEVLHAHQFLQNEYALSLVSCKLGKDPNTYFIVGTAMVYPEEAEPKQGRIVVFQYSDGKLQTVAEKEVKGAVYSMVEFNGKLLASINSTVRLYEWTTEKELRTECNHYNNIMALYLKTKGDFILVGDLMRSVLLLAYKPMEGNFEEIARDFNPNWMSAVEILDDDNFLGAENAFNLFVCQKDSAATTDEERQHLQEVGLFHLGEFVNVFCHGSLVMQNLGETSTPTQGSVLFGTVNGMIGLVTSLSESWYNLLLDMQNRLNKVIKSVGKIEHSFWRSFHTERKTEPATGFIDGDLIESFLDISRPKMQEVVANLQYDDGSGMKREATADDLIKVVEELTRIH

Structure (SMILES) | mean relative pDC50
CC(C)n1ccc2c(N3CCC(=O)NC3=O)cc(C(=O)N3CCN(CCC4CCN(c5ccc(NC(=O)N6C[C@H](C)N(c7ccc(C#N)c(Cl)c7)C[C@H]6C)cn5)CC4)CC3)cc21 [EAR 118, (2R,5S)-4-(3-Chloro-4-cyanophenyl)-N-(6-(4-(2-(4-(4-(2,4-dioxotetrahydropyrimidin-1(2H)-yl)-1-isopropyl-1H-indole-6-carbonyl)piperazin-1-yl)ethyl)piperidin-1-yl)pyridin-3-yl)-2,5-dimethylpiperazine-1-carboxamide] | 5.72

same assay, conditions: LNCaP, 18 h, HiBiT-tagged AR in human LnCaP cells, read-out: mean asymptote max

Structure (SMILES) | Dmax [%]
N#Cc1ccc(O[C@H]2CC[C@H](NC(=O)c3cnc(N4CCC(C(=O)N5CCC(n6ccc7c(N8CCC(=O)NC8=O)cccc76)CC5)CC4)nc3)CC2)cc1Cl [EAR69, N-((1r,4r)-4-(3-Chloro-4-cyanophenoxy)cyclohexyl)-2-(4-(4-(4-(2,4-dioxotetrahydropyrimidin-1(2H)-yl)-1H-indol-1-yl)piperidine-1-carbonyl)piperidin-1-yl)pyrimidine-5-carboxamide] | ≥ 50
CC(C)n1ccc2c(N3CCC(=O)NC3=O)cc(C(=O)N3CCN(CC4CCN(c5ccc(C(=O)N[C@H]6CC[C@H](Oc7ccc(C#N)c(Cl)c7)CC6)cn5)CC4)CC3)cc21 [EAR80, N-((1r,4r)-4-(3-Chloro-4-cyanophenoxy)cyclohexyl)-6-(4-((4-(4-(2,4-dioxotetrahydropyrimidin-1(2H)-yl)-1-isopropyl-1H-indole-6-carbonyl)piperazin-1-yl)methyl)piperidin-1-yl)nicotinamide] | ≥ 50
C[C@@H]1CN(C(=O)Nc2ccc(N3CCC(CCN4CCC(n5ncc6c(N7CCC(=O)NC7=O)cccc65)CC4)CC3)nc2)[C@@H](C)CN1c1ccc(C#N)c(Cl)c1 [EAR132, (2S,5R)-4-(3-Chloro-4-cyanophenyl)-N-(6-(4-(2-(4-(4-(2,4-dioxotetrahydropyrimidin-1(2H)-yl)-1H-indazol-1-yl)piperidin-1-yl)ethyl)piperidin-1-yl)pyridin-3-yl)-2,5-dimethylpiperazine-1-carboxamide, formic acid salt] | ≥ 50
N#Cc1ccc(O[C@H]2CC[C@H](NC(=O)c3cnc(N4CCC(CN5CCC(n6ncc7c(N8CCC(=O)NC8=O)c(F)ccc76)CC5)CC4)cn3)CC2)cc1C(F)(F)F [EAR189, N-((1r,4r)-4-(4-Cyano-3-(trifluoromethyl)phenoxy)cyclohexyl)-5-(4-((4-(4-(2,4-dioxotetrahydropyrimidin-1(2H)-yl)-5-fluoro-1H-indazol-1-yl)piperidin-1-yl)methyl)piperidin-1-yl)pyrazine-2-carboxamide hydrochloride] | ≥ 50
C[C@@H]1CN(c2ccc(C#N)c(Cl)c2)[C@@H](C)CN1C(=O)c1ccc(OCCCCCN2CCC(n3ccc4c(N5CCC(=O)NC5=O)cncc43)CC2)nc1 [EAR165, 2-Chloro-4-((2S,5R)-4-(6-((5-(4-(4-(2,4-dioxotetrahydropyrimidin-1(2H)-yl)-1H-pyrrolo[2,3-c]pyridin-1-yl)piperidin-1-yl)pentyl)oxy)nicotinoyl)-2,5-dimethylpiperazin-1-yl)benzonitrile] | ≥ 50
N#Cc1ccc(O[C@H]2CC[C@H](NC(=O)c3ccc(N4CCC5(CC4)CC(CN4CCC(n6ncc7c(N8CCC(=O)NC8=O)cccc76)CC4)C5)nn3)CC2)cc1Cl [EAR237, N-((1r,4r)-4-(3-chloro-4-cyanophenoxy)cyclohexyl)-6-(2-((4-(4-(2,4-dioxotetrahydropyrimidin-1(2H)-yl)-1H-indazol-1-yl)piperidin-1-yl)methyl)-7-azaspiro[3.5]nonan-7-yl)pyridazine-3-carboxamide] | ≥ 50
CC1(C)[C@H](NC(=O)c2ccc(N3CCC(CN4CCC(n5ncc6c(N7CCC(=O)NC7=O)ccnc65)CC4)CC3)cn2)C(C)(C)[C@H]1Oc1ccc(C#N)c2ncccc12 [EAR260, N-((1r,3r)-3-((8-Cyanoquinolin-5-yl)oxy)-2,2,4,4-tetramethylcyclobutyl)-5-(4-((4-(4-(2,4-dioxotetrahydropyrimidin-1(2H)-yl)-1H-pyrazolo[3,4-b]pyridin-1-yl)piperidin-1-yl)methyl)piperidin-1-yl)picolinamide hydrochloride] | ≥ 50
CC(C)n1ccc2c(N3CCC(=O)NC3=O)cc(C(=O)N3CCN(CCC4CCN(c5ccc(NC(=O)N6C[C@H](C)N(c7ccc(C#N)c(Cl)c7)C[C@H]6C)cn5)CC4)CC3)cc21 [EAR 118, (2R,5S)-4-(3-Chloro-4-cyanophenyl)-N-(6-(4-(2-(4-(4-(2,4-dioxotetrahydropyrimidin-1(2H)-yl)-1-isopropyl-1H-indole-6-carbonyl)piperazin-1-yl)ethyl)piperidin-1-yl)pyridin-3-yl)-2,5-dimethylpiperazine-1-carboxamide] | ≥ 50

Results, then the compound that gave them:

Dmax [%] | Structure (SMILES)
≥ 50 | N#Cc1ccc(O[C@H]2CC[C@H](NC(=O)c3ccc(N4CCC(CN5CCC(n6ccc7c(N8CCC(=O)NC8=O)ncnc76)CC5)CC4)nn3)CC2)cc1Cl [EAR119, N-((1r,4r)-4-(3-Chloro-4-cyanophenoxy)cyclohexyl)-6-(4-((4-(4-(2,4-dioxotetrahydropyrimidin-1(2H)-yl)-7H-pyrrolo[2,3-d]pyrimidin-7-yl)piperidin-1-yl)methyl)piperidin-1-yl)pyridazine-3-carboxamide]
≥ 50 | N#Cc1ccc(O[C@H]2CC[C@H](NC(=O)c3ccc(N4CCN(CC5CCC(n6ccc7c(N8CCC(=O)NC8=O)cccc76)CC5)CC4)nn3)CC2)cc1Cl (stereo partly drawn) [EAR194, N-((1r,4r)-4-(3-Chloro-4-cyanophenoxy)cyclohexyl)-6-(4-((4-(4-(2,4-dioxotetrahydropyrimidin-1(2H)-yl)-1H-indol-1-yl)cyclohexyl)methyl)piperazin-1-yl)pyridazine-3-carboxamide, trifluoroacetic acid salt]
≥ 50 | N#Cc1ccc(O[C@H]2CC[C@H](NC(=O)c3ccc(N4CCC(CCN5CCC(n6ccc7c(N8CCC(=O)NC8=O)cccc76)CC5)CC4)nn3)CC2)cc1Cl [EAR57, N-((1r,4r)-4-(3-Chloro-4-cyanophenoxy)cyclohexyl)-6-(4-(2-(4-(4-(2,4-dioxotetrahydropyrimidin-1(2H)-yl)-1H-indol-1-yl)piperidin-1-yl)ethyl)piperidin-1-yl)pyridazine-3-carboxamide hydrochloride]
≥ 50 | N#Cc1ccc(O[C@H]2CC[C@H](NC(=O)c3ccc(N4CCC(CN5CCC(n6ncc7c(N8CCC(=O)NC8=O)cccc76)CC5)CC4)nn3)CC2)cc1C(F)(F)F [EAR44, N-((1r,4r)-4-(4-Cyano-3-(trifluoromethyl)phenoxy)cyclohexyl)-6-(4-((4-(4-(2,4-dioxotetrahydropyrimidin-1(2H)-yl)-1H-indazol-1-yl)piperidin-1-yl)methyl)piperidin-1-yl)pyridazine-3-carboxamide]
≥ 50 | N#Cc1ccc(O[C@H]2CC[C@H](NC(=O)c3cnc(N4CCC(CN5CCC(n6ncc7c(N8CCC(=O)NC8=O)c(F)ccc76)CC5)CC4)cn3)CC2)cc1Cl [EAR190, N-((1r,4r)-4-(3-Chloro-4-cyanophenoxy)cyclohexyl)-5-(4-((4-(4-(2,4-dioxotetrahydropyrimidin-1(2H)-yl)-5-fluoro-1H-indazol-1-yl)piperidin-1-yl)methyl)piperidin-1-yl)pyrazine-2-carboxamide hydrochloride]
≥ 50 | N#Cc1ccc(O[C@H]2CC[C@H](NC(=O)c3ccc(N4CCC(CN5CCC(n6ncc7c(N8CCC(=O)NC8=O)nccc76)CC5)CC4)nn3)CC2)cc1Cl [EAR51, N-((1r,4r)-4-(3-Chloro-4-cyanophenoxy)cyclohexyl)-6-(4-((4-(4-(2,4-dioxotetrahydropyrimidin-1(2H)-yl)-1H-pyrazolo[4,3-c]pyridin-1-yl)piperidin-1-yl)methyl)piperidin-1-yl)pyridazine-3-carboxamide]
